Legend:
[1] = test system: MCF-7 cells; assay: Cell cycle analysis (PI, flow cytometry), MCF-7; assay type: cell-based, human; conditions: MCF-7, 24 h
Description: MCF-7 and MDA-MB-231 cells were seeded in 6-well plates at a density of 2 × 10^5 cells per well and cultured for 24 h under standard conditions (with 2 mL of the medium). Next, cells were exposed to the tested compounds at concentrations corresponding to IC50. After 24 h of treatment, control and treated cells were then collected (washed with cold PBS and treated with accutase), transferred to Eppendorf tubes and centrifuged (1100 rpm, 5 min, 5 °C). The supernatant was discarded, cold PBS was added (1 mL) and the cells were centrifuged (1200 rpm, 5 min). The solution was removed, and the cells were fixed in cold 70% ethanol at 4 °C. Prior to the analysis, the cells were centrifuged (3600 rpm, 5 min) and washed twice with PBS. The solution was discarded, the pellets were suspended in 200 µL of PBS and incubated with ribonuclease at 37 °C (25 µL, final concentration in a sample was 100 µg/mL) for 30 min and stained with propidine iodide (12.5 µL, final concentration in a sample was 50 µg/mL) in darkness at room temperature for additional 20 min. The final volume of the sample was 250 µL.
DNA content and the number of cells in individual cell cycle phases was measured by flow cytometry (CytoFlex, blue laser, 480 nm, Beckman-Coulter, Indianapolis, IN, USA). Cells (20,000) were analyzed from each sample. The percentage of cells in each cell cycle phase was calculated from live cells that were expressed as 100%. The data are presented as the mean ± SD of three independent experiments. The coefficients of variation for the assay were established (CV = 0.37–11.78%, depending on the cell population).

[2] = test system: MDA-MB-231 cells; assay: Intracellular GSH and GSSG, MDA-MB-231; assay type: cell-based, human
Description: The quantitative determination of glutathione and glutathione disulfide was performed using the enzymatic recycling method according to the protocol of Rahman. The cells were seeded at a density of 2 × 10^5 per well in a 6-well plate and cultured for 48 h. Then, the cells were treated with tested compounds 1, 4 and 7 at their respective ¼ and ½ IC50 values for MCF-7 and MDA-MB-231 cells. Additionally, controls with pure medium, AAPH (2,2′-Azobis(2-methylpropionamidine) dihydro-chloride, Sigma Aldrich, St. Louis, MO, USA) and ascorbic acid (Polish Chemical Reagents, Poland) were performed. The cells were incubated with compounds for another 24 h, then washed twice with 2 mL of cold, Ca^2+-/Mg^2+-free PBS (Biomed Lublin, Lublin, Poland). The cells were harvested using 1-mL accutase (Sigma Aldrich, St. Louis, MO, USA), and the wells were washed with 1 mL of cold growth medium. The cells were transferred to prechilled 2.0-mL Eppendorf tubes and centrifuged at 1000× g for 5 min at 4 °C. The supernatant was discarded, the pellets were resuspended in 1 mL of cold PBS, the number of cells was determined in each sample and the cellular suspension was centrifuged again. PBS was discarded, and the pellets were stored covered with 30-µL PBS at –70 °C. The following day, the cells were suspended in 0.5 mL of ice-cold extraction buffer (0.1% Triton-X (Polish Chemical Reagents, Gliwice, Poland) and 0.6% sulfosalicylic acid (Sigma Aldrich) in a potassium phosphate buffer with EDTA (Sigma Aldrich)) and sonicated in icy water for 3 min with vortexing every 30 s. The cells were frozen once again at −80 °C, defrosted on ice and frozen once again. Following the second freeze–thaw cycle, the cells were centrifuged at 1500× g for 5 min at 4 °C, and then, immediately, the supernatant was transferred to prechilled Eppendorf tubes. The samples were divided into two parts: one was used to measure GSH, and the other one was derivatized by an addition of 4 µL of 2-vinylpyridine (diluted 1:10 with phosphate buffer) (Sigma Aldrich, St. Louis, MO, USA) to determine the GSSG content.
GSH measurements included an addition of 20 µL of the tested sample, blank or GSH standard, 120 µL of the mixture of an equal volume of DTNB solution (2 mg dissolved in 3 mL of phosphate buffer, Sigma Aldrich) and glutathione reductase (10 U in 3 mL of phosphate buffer, Sigma Aldrich, St. Louis, MO, USA) and 30 s of incubation to allow the conversion of GSSG to GSH. The final step included the addition of 60 µL of β-NADPH (2 mg dissolved in 3 mL of phosphate buffer, Sigma Aldrich). The absorbance was read immediately at 415 nm in a microplate reader (Bio-Rad), and the measurements were taken every 30 s for 2 min (6 readings in total). The amount of GSH was calculated on the basis of the calibration curve prepared using GSH (Sigma Aldrich, St. Louis, MO, USA) at concentrations ranging from 0.040 to 2.6 nmol/mL.
The quantification of GSSG in the test samples was performed according to the same procedure as GSH. The samples treated with 2-VP were incubated for one hour at room temperature, and then, 20 µL of the tested sample was analyzed using the same reagents which were applied in the GSH measurements. The amount of GSSG was calculated on the basis of the calibration curve, prepared using GSSG (Sigma Aldrich) at concentrations of 0.040–2.6 nmol/mL. The results are presented as mean ± SD, n = 6–8 and expressed as nmol per […].

[3] = test system: MDA-MB-231 cells; assay: Cell viability WST-1 assay, MDA-MB-231; assay type: cell-based; conditions: Homo sapiens, WST-1, 24 h; for viability at 3000 µM: MDA-MB-231, 24 h, 3000 µmol/L, read-out: percentage of viability of MDA-MB-231 cells
Method in brief: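 Cells seeded 1 × 10^4/well, grown 24 h, then treated with compounds for 24 h at 37 °C. WST-1 reagent added for 1.5 h, absorbance at 450 nm, normalised to medium-only control (n = 8). IC50 from nonlinear log(concentration)-response fit.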

[4] = IC50 (Comp. 1 13, Comp. 4 430, Comp. 7 55 μmol/L)

CN(C)C(=N)N=C(N)NS(=O)(=O)c1ccccc1Br [Compound 4]
G0/G1 [1, 4]: 73.69 ± 0.26 % | G2/M [1, 4]: 8.21 ± 0.03 % | S [1, 4]: 15.16 ± 0.54 % | Sub G0/G1 [1, 4]: 2.98 ± 0.40% | GSH ([2]; MDA-MB-231, 1/2 × IC50, 24 h): 242.1 ± 13.7 nmol/1 mln Cells | GSH:GSSG Ratio ([2]; MDA-MB-231, 1/2 × IC50, 24 h): 12.3 | GSSG ([2]; MDA-MB-231, 1/2 × IC50, 24 h): 19.6 ± 1.4 nmol/1 mln Cells | GSH ([2]; MDA-MB-231, 1/4 × IC50, 24 h): 250.2 ± 12.1 nmol/1 mln Cells | GSH:GSSG Ratio ([2]; MDA-MB-231, 1/4 × IC50, 24 h): 12.5 | GSSG ([2]; MDA-MB-231, 1/4 × IC50, 24 h): 19.9 ± 2.3 nmol/1 mln Cells | viability at 3000 µM [3]: ~56.4%

CN(C)C(=N)N=C(N)NS(=O)(=O)c1ccccc1F [Compound 7]
G0/G1 [1, 4]: 56.48 ± 3.34 % | G2/M [1, 4]: 15.43 ± 0.93 % | S [1, 4]: 10.34 ± 0.74 % | Sub G0/G1 [1, 4]: 17.85 ± 2.08 % | GSH ([2]; MDA-MB-231, 1/2 × IC50, 24 h): 248.7 ± 13.3 nmol/1 mln Cells | GSH:GSSG Ratio ([2]; MDA-MB-231, 1/2 × IC50, 24 h): 11.3 | GSSG ([2]; MDA-MB-231, 1/2 × IC50, 24 h): 21.9 ± 2.9 nmol/1 mln Cells | GSH ([2]; MDA-MB-231, 1/4 × IC50, 24 h): 265.0 ± 15.9 nmol/1 mln Cells | GSH:GSSG Ratio ([2]; MDA-MB-231, 1/4 × IC50, 24 h): 11.8 | GSSG ([2]; MDA-MB-231, 1/4 × IC50, 24 h): 22.5 ± 0.9 nmol/1 mln Cells | IC50 ([3]; MDA-MB-231, mean ± SD (n = 6–8), read-out: IC50 inhibition of MDA-MB-231 cells' viability): 2590 ± 150 µM

CN(C)C(=N)N=C(N)NS(=O)(=O)c1ccccc1Cl [Compound 1]
G0/G1 [1, 4]: 38.76 ± 0.80% | G2/M [1, 4]: 17.54 ± 0.48 % | S [1, 4]: 35.45 ± 0.23 % | Sub G0/G1 [1, 4]: 8.28 ± 1.04 % | G0/G1 ([1]; IC50 (Comp. 1 13, Comp. 4 430, Comp. 7 55 µmol/L), listed as Comp. 1): 38.76 ± 0.80 % | GSH ([2]; MDA-MB-231, 1/2 × IC50, 24 h): 242.0 ± 47.0 nmol/1 mln Cells | GSH:GSSG Ratio ([2]; MDA-MB-231, 1/2 × IC50, 24 h): 12.1 | GSSG ([2]; MDA-MB-231, 1/2 × IC50, 24 h): 19.9 ± 2.0 nmol/1 mln Cells | GSH ([2]; MDA-MB-231, 1/4 × IC50, 24 h): 238.0 ± 4.3 nmol/1 mln Cells | GSH:GSSG Ratio ([2]; MDA-MB-231, 1/4 × IC50, 24 h): 12.2 | GSSG ([2]; MDA-MB-231, 1/4 × IC50, 24 h): 19.5 ± 2.2 nmol/1 mln Cells | viability at 3000 µM [3]: ~60%

— article PMC7177633, “Effective Cellular Transport of Ortho-Halogenated Sulfonamide Derivatives of Metformin Is Related to Improved Antiproliferative Activity and Apoptosis Induction in MCF-7 Cells” (International Journal of Molecular Sciences, 2020)
